# Test results taken from patent US11180452B2, “Methods and compositions for selectively inhibiting pathogenic microbes” (priority 2019, dated 2021).
# Where two headings read alike, the source gives them in different places.
# How the values were obtained:
# N. gonorrhoeae = N. gonorrhoeae MIC; assay type: cell-based; settings: Neisseria gonorrhoeae
# HepG2 cells = test: SYTOX assay on HepG2 cells; assay type: cell-based; settings: staining in treated cells
# [1] = test system: Francisella tularensis strains; test: microbe, parasite or virus in culture; assay type: cell-based
# Candida glabrata = Candida glabrata MIC / MFC; assay type: cell-based; settings: Nakaseomyces glabratus; for MFC: read-out: MFC; for MIC: read-out: MIC
# [2] = test system: Burkholderia thailandensis Brett et al ATCC: 700388; test: microbe, parasite or virus in culture; assay type: cell-based
# Bacillus subtilis = Bacillus subtilis MIC / MBC; assay type: cell-based; settings: for MBC: Bacillus subtilis NRRL: B-571, minimum bactericidal concentration; for MIC: Bacillus subtilis
# Roseomonas mucosa (RM) = test: MIC against skin commensal Roseomonas mucosa; assay type: cell-based; settings: read-out: Skin Commensals MIC Roseomonas mucosa (RM)
# [3] = test system: Staphylococcus epidermidis (SE); test: MIC against skin commensal Staphylococcus epidermidis; assay type: cell-based; settings: read-out: Skin Commensals MIC Staphylococcus epidermidis (SE)
# Bacillus thuringiensis = assay type: cell-based; settings: for MIC: Bacillus thuringiensis
# [4] = test system: Francisella tularensis subsp. Holarctica Strain LVSR NR-597; test: microbe, parasite or virus in culture; assay type: cell-based
# [5] = HepaRG cytotoxicity, MTT assay EC50; assay type: cell-based, human; settings: human, NoSpin HepaRG cells
# Experimental: (§1) Additionally, the antimicrobial compounds were analyzed for cytotoxicity. […] We utilized the standard MTT assay (Promega CellTiter 96) and GraphPad Prism 7 software to determine EC50 values for each analogue. Briefly, 20,000 HepG2 cells in 200 μl of the ATCC recommended media were seeded in each well of a 96-well plate with a moisture barrier created in the outermost wells. The cells were allowed to attach overnight at 37° C., and then observed under phase contrast microscopy for proper morphological characteristics. […] Once incubations were complete, the spectrophotometric absorbance of the samples was measured at a wavelength of 595 nm. […] For the HepaRG assay, NoSpin HepaRG™ cells (Lonza, cat #NSHPRG) were thawed and plated with 20,000 cells per well. They were allowed to attach for 4 h (optimal DME profile per Lonza's testing) before dosing following the identical protocol as above.
# NoSpin HepaRG cells = test: HepaRG cytotoxicity, MTT assay EC50; assay type: cell-based, human; settings: Homo sapiens, HepaRG; cytotoxicity EC50, Table 9
# Experimental: as §1
# Trichophyton rubrum = test: MIC against Trichophyton rubrum; assay type: cell-based
# C. albicans = test: Candida albicans MIC / MFC; assay type: cell-based
# [6] = test system: Staphylococcus aureus (SA); test: MIC against pathogen Staphylococcus aureus (Table 1); assay type: cell-based; settings: read-out: Pathogens MIC Staphylococcus aureus (SA)
# [7] = MIC with and without 2-ketobutyrate (synergy); assay type: cell-based
# [8] = test system: cell wall synthesis of S. aureus; test: Macromolecular synthesis assay, glucosamine incorporation into cell wall; assay type: cell-based; settings: dose-response, FIG. 2A-2B
# [9] = read-out: F. tularensis BSL-3 MIC, Strain 100
# [10] = read-out: F. tularensis BSL-3 MIC, strain HN-63
# [11] = read-out: F. tularensis BSL-3 MIC, strain LVS
# [12] = read-out: F. tularensis BSL-3 MIC, strain MA00-2987
# [13] = read-out: F. tularensis BSL-3 MIC, strain MO #1
# [14] = read-out: F. tularensis BSL-3 MIC, strain MO #2
# [15] = read-out: F. tularensis BSL-3 MIC, strain MO #3
# [16] = read-out: F. tularensis BSL-3 MIC, strain OR-96
# [17] = read-out: F. tularensis BSL-3 MIC, strain SCHU S4
# [18] = read-out: F. tularensis BSL-3 MIC, strain WY-96
# [19] = read-out: MAX, highest MIC over the Francisella tularensis strains
# [20] = read-out: MIN, lowest MIC over the Francisella tularensis strains
# [21] = C. glabrata strain #584 (Table 7)
# [22] = Candida glabrata #584 (Table 2)
# [23] = Bacillus subtilis (Ehrenberg 1835) Cohn 1872 NRRL: B-571, read-out: MIC
# [24] = strain B-571 (Table 4), read-out: Bacillus subtilis MIC
# [25] = strain B-1985, read-out: Bacillus subtilis MIC
# [26] = strain B-3665, read-out: Bacillus subtilis MIC
# [27] = strain B-14322, read-out: Bacillus subtilis MIC
# [28] = strain B-41090, read-out: Bacillus subtilis MIC
# [29] = strain BD-594, read-out: Bacillus subtilis MIC
# [30] = Bacillus thuringiensis Berliner ATCC: 10792
# [31] = Bacillus thuringiensis Berliner ATCC: 10792, read-out: MIC
# [32] = Trichophyton rubrum Castellani Sabouraud ATCC: 28188, read-out: MIC
# [33] = C. albicans strain #761, read-out: MFC
# [34] = C. albicans strain #761, read-out: MIC
# [35] = C. albicans strain #762, read-out: MFC
# [36] = C. albicans strain #762, read-out: MIC
# [37] = Candida glabrata #584 (Table 2), minimum fungicidal concentration
compound,measurement,setting,value
"Nc1ccccc1Sc1c[nH]c2ccc(Br)cc12 [Compound 174M, 2-((5-bromo-1H-indol-3-yl)thio)aniline]",MIC,N. gonorrhoeae; strain #167,1.56 µg/mL
same,cell membrane damage of HepG2 cells,HepG2 cells,no cell membrane damage
same,MIC50,[1],4 µg/mL
same,MIC,[1]; [9],> 8 µg/mL
same,MIC,[1]; [10],4 µg/mL
same,MIC,[1]; [11],2 µg/mL
same,MIC,[1]; [12],2 µg/mL
same,MIC,[1]; [13],2 µg/mL
same,MIC,[1]; [14],1.67 µg/mL
same,MIC,[1]; [15],4 µg/mL
same,MIC,[1]; [16],4 µg/mL
same,MIC,[1]; [17],8 µg/mL
same,MIC,[1]; [18],4 µg/mL
same,MIC,[1]; [19],> 8 µg/mL
same,MIC,[1]; [20],1.67 µg/mL
same,MFC,Candida glabrata; C. glabrata strain #325,> 50 µg/mL
same,MIC,Candida glabrata; C. glabrata strain #325,25 µg/mL
same,MIC,Candida glabrata; [21],12.5 µg/mL
same,MIC,Candida glabrata; [22],12.5 µg/mL
same,MBC,[2],> 150 µg/mL
same,MIC,[2],150 µg/mL
same,MBC,Bacillus subtilis,10 µg/mL
same,MIC,Bacillus subtilis; [23],0.63 µg/mL
same,MIC,Bacillus subtilis; [24],0.625 µg/mL
same,MIC,Bacillus subtilis; [25],5 µg/mL
same,MIC,Bacillus subtilis; [26],10 µg/mL
same,MIC,Bacillus subtilis; [27],2.5 µg/mL
same,MIC,Bacillus subtilis; [28],5 µg/mL
same,MIC,"Bacillus subtilis; strain B-41581, read-out: Bacillus subtilis MIC",5 µg/mL
same,MIC,Bacillus subtilis; [29],5 µg/mL
same,MIC,Roseomonas mucosa (RM),> 50 µg/mL
same,MIC,[3],16 µg/mL
same,MBC,Bacillus thuringiensis; [30],5 µg/mL
same,MIC,"Bacillus thuringiensis; ATCC10792, […]",0.625 µg/mL
same,MIC,Bacillus thuringiensis; [31],1.25 µg/mL
same,MIC,Bacillus thuringiensis; strain B-1596,1.25 µg/mL
same,MIC,[4],2.5 µg/mL
same,EC50 at 48 h,[5],85 µg/mL
same,EC50,NoSpin HepaRG cells,26.5 µg/mL
same,MIC,Trichophyton rubrum; [32],0.99 µg/mL
same,MIC,"Trichophyton rubrum; Trichophyton rubrum, read-out: Pathogens MIC Trichophyton rubrum (TR)",0.9 µg/mL
same,MFC,C. albicans; [33],25 µg/mL
same,MIC,C. albicans; [34],12.5 µg/mL
same,MFC,C. albicans; [35],25 µg/mL
same,MIC,C. albicans; [36],3.13 µg/mL
same,MIC,[6],2 µg/mL
same,synergistic effect with 2-ketobutyrate,[7],synergistic effect
same,MIC,[7]; with 200 μg/mL 2-ketobutyrate,0.781 µg/mL
same,MIC,[7]; with 800 μg/mL 2-ketobutyrate,less than 0.39 μg/mL
same,MIC,[7]; without ketobutyrate,3.124 µg/mL
"Brc1cccc(Sc2c[nH]c3ccc(Br)cc23)c1 [Compound 174N, 5-bromo-3-((3-bromophenyl)thio)-1H-indole]",MIC,N. gonorrhoeae; strain #167,1.56 µg/mL
same,MIC50,[1],4 µg/mL
same,MIC,[1]; [9],8 µg/mL
same,MIC,[1]; [10],4 µg/mL
same,MIC,[1]; [11],6.67 µg/mL
same,MIC,[1]; [12],6.67 µg/mL
same,MIC,[1]; [13],3.33 µg/mL
same,MIC,[1]; [14],3.67 µg/mL
same,MIC,[1]; [15],4 µg/mL
same,MIC,[1]; [16],4 µg/mL
same,MIC,[1]; [17],> 8 µg/mL
same,MIC,[1]; [18],4 µg/mL
same,MIC,[1]; [19],> 8 µg/mL
same,MIC,[1]; [20],3.33 µg/mL
same,MIC,Candida glabrata; C. glabrata strain #325,> 50 µg/mL
same,MFC,Candida glabrata; [21],50 µg/mL
same,MFC,Candida glabrata; [37],50 µg/mL
same,MBC,[2],> 150 µg/mL
same,MIC,[2],50 µg/mL
same,MBC,Bacillus subtilis,10 µg/mL
same,MIC,Bacillus subtilis; [23],1.25 µg/mL
same,MIC,Bacillus subtilis; [24],1.25 µg/mL
same,MIC,Bacillus subtilis; [25],1.25 µg/mL
same,MIC,Bacillus subtilis; [26],1.25 µg/mL
same,MIC,Bacillus subtilis; [27],1.25 µg/mL
same,MIC,Bacillus subtilis; [28],2.5 µg/mL
same,MIC,Bacillus subtilis; [29],2.5 µg/mL
same,MBC,Bacillus thuringiensis; [30],10 µg/mL
same,MIC,"Bacillus thuringiensis; ATCC10792, […]",1.25 µg/mL
same,MIC,Bacillus thuringiensis; [31],1.25 µg/mL
same,MIC,Bacillus thuringiensis; strain B-1596,2.5 µg/mL
same,MIC,[4],1.25 µg/mL
same,EC50,NoSpin HepaRG cells,29.5 µg/mL
same,MIC,Trichophyton rubrum; [32],< 0.57 µg/mL
same,MFC,C. albicans; [33],> 50 µg/mL
same,MIC,C. albicans; [34],12.5 µg/mL
same,MFC,C. albicans; [35],6.25 µg/mL
same,MIC,C. albicans; [36],3.13 µg/mL
"CN[C@H](CC(C)C)C(=O)N[C@H]1C(=O)N[C@@H](CC(N)=O)C(=O)N[C@H]2C(=O)N[C@H]3C(=O)N[C@H](C(=O)N[C@H](C(=O)O)c4cc(O)cc(O)c4-c4cc3ccc4O)[C@H](O)c3ccc(c(Cl)c3)Oc3cc2cc(c3O[C@@H]2O[C@H](CO)[C@@H](O)[C@H](O)[C@H]2O[C@H]2C[C@](C)(N)[C@H](O)[C@H](C)O2)Oc2ccc(cc2Cl)[C@H]1O [vancomycin, reference compound]",cell wall synthesis inhibition (glucosamine incorporation),[8],increasingly inhibits glucosamine from incorporating into a cell wall
"COc1ccc2[nH]cc(Sc3ccc(Br)cc3)c2c1 [Compound 172E, 3-((4-bromophenyl)thio)-5-methoxy-1H-indole]",MIC,N. gonorrhoeae; strain #167,< 0.39 µg/mL
same,MIC,N. gonorrhoeae; strain #203,3.13 µg/mL
same,MIC,N. gonorrhoeae; strain #205,3.13 µg/mL
same,MIC50,[1],8 µg/mL
same,MIC,[1]; [9],> 8 µg/mL
same,MIC,[1]; [10],8 µg/mL
same,MIC,[1]; [11],> 8 µg/mL
same,MIC,[1]; [12],8 µg/mL
same,MIC,[1]; [13],5.33 µg/mL
same,MIC,[1]; [14],3.33 µg/mL
same,MIC,[1]; [15],8 µg/mL
same,MIC,[1]; [16],8 µg/mL
same,MIC,[1]; [17],4 µg/mL
same,MIC,[1]; [18],> 8 µg/mL
same,MIC,[1]; [19],> 8 µg/mL
same,MIC,[1]; [20],3.33 µg/mL
same,MFC,Candida glabrata; [37],> 50 µg/mL
same,MIC,Candida glabrata; [22],6.25 µg/mL
same,MIC,[2],> 50 µg/mL
same,MBC,Bacillus subtilis,6.25 µg/mL
same,MIC,Bacillus subtilis; [23],1.56 µg/mL
same,MBC,Bacillus thuringiensis; [30],12.5 µg/mL
same,MIC,Bacillus thuringiensis; [31],1.56 µg/mL
same,MIC,[4],0.78 µg/mL
same,EC50,NoSpin HepaRG cells,23.3 µg/mL
same,MIC,Trichophyton rubrum; [32],2.08 µg/mL
